Assay results published in patent publication US4406908A, “Tetrazolylcoumarin derivatives and antiallergic compositions containing the same” (Kakenyaku Kako Co., Ltd., priority 1980, dated 1983).

What was measured:
acute toxicity in mice = conditions: mouse, in vivo, po, orally, suspended in 10% gum arabic solution, 6 days observation, method of Litchfield-Wilcoxon
Experimental: With respect to the 3-(1H-tetrazol-5-yl)-coumarin derivatives obtained in Examples 1 to 12, there was tested acute toxicity in mice.
After normal female Slc: ddy mice 4 weeks old were purchased and fed preliminarily in this lavoratory for a week, these mice weighing 25-27 g. were used in the test. The present compounds to be tested, were suspended in a 10% gum arabic solution and administered orally […]. body weight to mice. Each dose level was given to a group of ten animals and the survivors were kept under observation for 6 days. The numbers of dead animals were counted and the LD50 values in mg./kg. body weight were calculated by the method of Litchfield-Wilcoxon.

[1] = test system: passive cutaneous anaphylaxis (PCA) mediated by homocytotropic antibodies (HTA); test: antiallergic activity: passive cutaneous anaphylaxis (PCA) mediated by homocytotropic antibodies (HTA) in rats; type: in vivo, rat (Wister); conditions: Rattus norvegicus, given orally 30 minutes before antigen challenge, minimum dose that decreased statistically significantly the amount of leaked dye comparing with control, 72 hr. PCA, read-out: MED
Experimental: With respect to the 3-(1H-tetrazol-5-yl)-coumarin derivatives obtained in Examples 1 to 12, there was tested antiallergic activity concerning passive cutaneous anaphylaxis (PCA) mediated by homocytotropic antibodies (HTA) in rats.
2,4-Dinitrophenyl-coupled ascaris extract (DNP-As) used as antigen, was prepared according to the methods of Strejan et al [cf. J. Immunol., Vol. 98, 893(1967)] and Eisen [cf. J. Amer. Chem. Soc., Vol. 75, 4593(1953)]. Antisera containing HTA were prepared in rats according to the method of Tada and Okumura [cf, J. Immunol., Vol. 106, 1002(1971)] as follows:
Wister rats weighing 180 to 200 g. were splenectomized and several days later immunized by injecting into all four footpads a total of 1 mg. of DNP-As mixed with 10^10 Bordetella pertussis. After 5 days, 0.5 mg. of DNP-As alone was injected subcutaneously into the back of rats. Eight days after the first immunization, blood was collected by aortic puncture under ether anaesthesea and antisera obtained by these procedures were pooled and stored at -80° C.
The titer of the pooled autiserum was determined in rats by the 72 hr. PCA which method was described in the following item (ii), i.e. the highest dilution of antiserum producing a diameter of approximately 5 mm. was usually 1:500.
Normal wister rats weighing 140 to 160 g. were sensitized passively by injection intradermal on the shaved back skin 0.05 ml. of the diluted antisera (1:30). After 72 hours, the animals were injected intravenously 1 ml. of physiological salt solution containing 2 mg. DNP-As and 2.5 mg. Evans' blue.
The present compounds to be tested were given orally 30 minutes before antigen challenge. The animals were exsanguinated 30 minutes after challenge with the antigens and the skins were exfoliated. The intensities of PCA were evaluated by measuring the amount of leaked dye. The amount of dye leaked as a result of PCA was extracted according to the method of Harada et al [cf. Jpn.

| SMILES | LD50 at 144 h (acute toxicity in mice) [mg/kg] | minimal effective dose [1] [mg/kg] |
| --- | --- | --- |
| O=c1oc2c(OCCCO)cccc2cc1-c1nnn[nH]1 [Ex. 1, 8-(3-Hydroxypropoxy)-3-(1H-tetrazol-5-yl)coumarin] | > 2000 | – |
| COCCOc1cccc2cc(-c3nnn[nH]3)c(=O)oc12 [Ex. 2, 8-(3-Oxabutoxy)-3-(1H-tetrazol-5-yl)coumarin] | 1500 to 2000 | 1.56 |
| CCOCCOc1cccc2cc(-c3nnn[nH]3)c(=O)oc12 [Ex. 3, 8-(3-Oxapentyloxy)-3-(1H-tetrazol-5-yl)coumarin] | 1500 | 0.39 |
| CCCOCCOc1cccc2cc(-c3nnn[nH]3)c(=O)oc12 [Ex. 4, 8-(3-Oxahexyloxy)-3-(1H-tetrazol-5-yl)coumarin] | 1500 to 2000 | 1.56 |
| CC(C)OCCOc1cccc2cc(-c3nn[nH]n3)c(=O)oc12 [Ex. 5] | 1500 | 6.25 |
| CCCCOCCOc1cccc2cc(-c3nnn[nH]3)c(=O)oc12 [Ex. 6, 8-(3-Oxaheptyloxy)-3(1H-tetrazol-5-yl)coumarin] | > 2000 | 6.25 |
| CC(C)COCCOc1cccc2cc(-c3nnn[nH]3)c(=O)oc12 [Ex. 7, 8-(5-Methyl-3-oxahexyloxy)-3-(1H-tetrazol-5-yl)coumarin] | > 2000 | 6.25 |
| CCOCCCOc1cccc2cc(-c3nnn[nH]3)c(=O)oc12 [Ex. 8, 8-(4-Oxahexyloxy)-3-(1H-tetrazol-5-yl)coumarin] | > 2000 | 6.25 |
| CCOCCCCOc1cccc2cc(-c3nnn[nH]3)c(=O)oc12 [Ex. 9, 8-(5-Oxaheptyloxy)-3-(1H-tetrazol-5-yl)coumarin] | > 2000 | 0.39 |
| C=CCOCCOc1cccc2cc(-c3nnn[nH]3)c(=O)oc12 [Ex. 10, 8-(3-Oxa-5-hexenyloxy)-3-(1H-tetrazol-5-yl)-coumarin] | 1500 to 2000 | 6.25 |
| CCOCCOCCOc1cccc2cc(-c3nn[nH]n3)c(=O)oc12 [Ex. 11, 8-(3,6-Dioxaoctyloxy)-3-(1-H-tetrazol-5-yl)-coumarin] | > 2000 | 1.56 |
| O=c1oc2c(OCCOc3ccccc3)cccc2cc1-c1nnn[nH]1 [Ex. 12, 8-(2-Phenoxyethyloxy)-3-(1H-tetrazol-5-yl)-coumarin] | > 2000 | 1.56 |
